Source: patent US7342137B1, “Cyclohexenone compounds from Antrodia camphorata and application thereof” (Golden Biotechnology Corporation, priority 2007, dated 2008)

Assays:
Type in all cases: cell-based
[1] = system: human hepatic-cancer cells, Hep 3B; assay: In vitro survival assay (MTT), hepatic cancer cells Hep 3B; settings: Hep3B, 48 hours incubation
Method: (§1) The NCI anti-cancer drug screen model was also adopted to test the anti-cancer effect of the compound isolated from example 1 in the present invention. The isolated compound of 4-hydroxy-2,3-dimethoxy-6-methyl-5(3,7,11-trimethyl-dodeca-2,6,10-trienyl)-cyclohex-2-enone from example 1 was added into the culture media of human hepatic-cancer cells, Hep 3B or Hep G2, for tumor cell survival assay.
(§2) The human hepatic-cancer cells, Hep 3B and Hep G2, were separately cultivated in media containing fetal calf serum for 24 hours. The proliferated cells were washed once with PBS, then treated with 1× trypsin-EDTA and centrifuged at 1200 rpm for 5 minutes. The supernatant was discarded and the cell pellet was resuspended in 10 ml of fresh culture medium by gently shaking. The cells were placed in a 96-well plate. Ethanol extracts of Antrodia camphorata (the control group, total extracts of Antrodia camphorata without purification) were added into each of the 96 wells at the following concentrations: 30, 10, 3, 1, 0.3, 0.1 and 0.03 μg/ml, respectively, while 4-hydroxy-2,3-dimethoxy-6-methyl-5(3,7,11-trimethyl-dodeca-2,6,10-trienyl)-cyclohex-2-enone (the experiment group) were added into each of the 96 wells at the following concentrations: 30, 10, 3, 1, 0.3, 0.1 and 0.03 μg/ml, respectively. […] The plates were read on an ELISA reader at wavelength of 570 nm to determine the survival rates.

[2] = system: human breast-cancer cells, MCF-7; assay: In vitro Taxol add-on study (MTT), MCF-7; settings: Homo sapiens, MCF7, 0.0017 μg/ml Taxol + formula 2
Method: The experiment was also carried out according to NCI anti-cancer drug screen in vitro model. The human breast-cancer cells, MCF-7 and MDA-MB-231 were separately cultivated in media containing fetal calf serum for 24 hours. The proliferated cells were washed once with PBS, then treated with 1× trypsin-EDTA and centrifuged at 1200 rpm for 5 minutes. The supernatant was discarded and the cell pellet was resuspended in 10 ml of fresh culture medium by gently shaking. The cells were placed in a 96-well plate after 0.0017 μg/ml Taxol was added and treated for 72 hours. 4-hydroxy-2,3-dimethoxy-6-methyl-5(3,7,11-trimethyl-dodeca-2,6,10-trienyl)-cyclohex-2-enone obtained from example 1 were added respectively into each of the 96 wells at the following concentrations: 0 μg/ml (the control group); 30, 10, 3, 1, 0.3, 0.1 and 0.03 μg/ml (the experiment group). The cells were incubated at 37° C. in a 5% CO2 incubator for 48 hours. MTT was added in a concentration of 2.5 mg/ml into each well in dark and reacted for 4 hours, followed by the addition of 100 μl of lysis buffer to terminate the reaction. The plates were read on an ELISA reader at wavelength of 570 nm to determine the survival rates.

[3] = system: human breast-cancer cells, MCF-7; assay: In vitro survival assay (MTT), breast cancer cells MCF-7; settings: MCF7, 48 hours incubation
Method: (§3) The NCI anti-cancer drug screen model was adopted to test the anti-cancer effect of the compound from example 1 in the invention. The isolated compound of 4-hydroxy-2,3-dimethoxy-6-methyl-5(3,7,11-trimethyl-dodeca-2,6,10-trienyl)-cyclohex-2-enone from example 1 was added into the culture media of human breast-cancer cells, MCF-7 or MDA-MB-231, for tumor cell survival assay. This assay can be tested with 3-[4,5-dimethylthiazol-2-yl]2,5-diphenyltetrazolium bromide (MTT) assay, which is commonly used to determine cell proliferation, percent of viable cells, and cytotoxicity. MTT is a yellow dye, which can be absorbed by the living cells and be reduced to purplish blue formazan crystals by succinate tetrazolium reductase in mitochondria. Formazan formation can therefore be used to assess and determine the survival rate of cells.
(§4) The human breast-cancer cells, MCF-7 and MDA-MB-231 were separately cultivated in media containing fetal calf serum for 24 hours. The proliferated cells were washed once with PBS, then treated with 1× trypsin-EDTA and centrifuged at 1200 rpm for 5 minutes. The supernatant was discarded and the cell pellet was resuspended in 10 ml of fresh culture medium by gently shaking. The cells were placed in a 96-well plate. […] The plates were read on an ELISA reader at wavelength of 570 nm to determine the survival rates.

[4] = system: human prostate cancer cells, DU-145; assay: In vitro survival assay (MTT), prostate cancer cells DU-145; settings: 48 hours incubation
Method: as §1, with “prostate cancer” for “hepatic-cancer”, “LNCaP” for “Hep 3B”, “DU-145,” for “Hep G2,”
as §2, with “LNCaP” for “Hep 3B”, “DU-145,” for “Hep G2,”, “or” for “were added into each of the 96 wells at the following concentrations: 30, 10, 3, 1, 0.3, 0.1 and 0.03 μg/ml, respectively, while”, “respectively. The cells were incubated at 37° C. in a 5% CO2 incubator for 48 hours.” for “respectively.”

[5] = system: human hepatic-cancer cells, Hep G2; assay: In vitro survival assay (MTT), hepatic cancer cells Hep G2; settings: HepG2, 48 hours incubation
Method: as §1, §2

[6] = system: human breast-cancer cells, MDA-MB-231; assay: In vitro survival assay (MTT), breast cancer cells MDA-MB-231; settings: 48 hours incubation
Method: as §3, §4

- IC50 [2]: 0.009 µg/mL
Structure (SMILES): COC1=C(OC)C(O)C(C/C=C(\C)CC/C=C(\C)CCC=C(C)C)C(C)C1=O (stereo not drawn) [formula 2, 4-hydroxy-2,3-dimethoxy-6-methyl-5(3,7,11-trimethyl-dodeca-2,6,10-trienyl)-cyclohex-2-enone]
- IC50 [1]: 0.005 µg/mL
- IC50 [3]: 0.852 µg/mL
- IC50 [4]: 1.81 µg/mL
- IC50 [5]: 1.68 µg/mL
- IC50 [6]: 1.03 µg/mL
